The assay has as its target T1, EGFR (L858R & T790M) (Homo sapiens, UniProt P00533, L858R/T790M).
T1 construct: GST; purchased Proqinase
Briefly: EGFR (L858R & T790M) inhibition assay, HTRF method. To be noted: biochemical HTRF; EGFR (T790M/L858R) 2.5 nM, ATP 5 μM, 60 min room temperature. In a few lines: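 GST-EGFR T790M/L858R (2.5 nM) phosphorylating biotinylated gastrin precursor peptide (0.5 μM) with 5 μM ATP in HEPES pH 7.4/Mg/Mn buffer, 60 min room temperature; compounds from 10 μM top. HTRF read-out (Eu anti-pTyr, SA-APC), 665/620 nm; IC50 from % inhibition.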
For orientation: Time-resolved FRET reads energy transfer from a long-lived donor to a nearby acceptor.

By IC50 is commonly meant the midpoint of a concentration-inhibition curve.

Where a name gives a salt, the structure may show the parent alone.

T1 sequence (P00533 25-1210 T790M/L858R): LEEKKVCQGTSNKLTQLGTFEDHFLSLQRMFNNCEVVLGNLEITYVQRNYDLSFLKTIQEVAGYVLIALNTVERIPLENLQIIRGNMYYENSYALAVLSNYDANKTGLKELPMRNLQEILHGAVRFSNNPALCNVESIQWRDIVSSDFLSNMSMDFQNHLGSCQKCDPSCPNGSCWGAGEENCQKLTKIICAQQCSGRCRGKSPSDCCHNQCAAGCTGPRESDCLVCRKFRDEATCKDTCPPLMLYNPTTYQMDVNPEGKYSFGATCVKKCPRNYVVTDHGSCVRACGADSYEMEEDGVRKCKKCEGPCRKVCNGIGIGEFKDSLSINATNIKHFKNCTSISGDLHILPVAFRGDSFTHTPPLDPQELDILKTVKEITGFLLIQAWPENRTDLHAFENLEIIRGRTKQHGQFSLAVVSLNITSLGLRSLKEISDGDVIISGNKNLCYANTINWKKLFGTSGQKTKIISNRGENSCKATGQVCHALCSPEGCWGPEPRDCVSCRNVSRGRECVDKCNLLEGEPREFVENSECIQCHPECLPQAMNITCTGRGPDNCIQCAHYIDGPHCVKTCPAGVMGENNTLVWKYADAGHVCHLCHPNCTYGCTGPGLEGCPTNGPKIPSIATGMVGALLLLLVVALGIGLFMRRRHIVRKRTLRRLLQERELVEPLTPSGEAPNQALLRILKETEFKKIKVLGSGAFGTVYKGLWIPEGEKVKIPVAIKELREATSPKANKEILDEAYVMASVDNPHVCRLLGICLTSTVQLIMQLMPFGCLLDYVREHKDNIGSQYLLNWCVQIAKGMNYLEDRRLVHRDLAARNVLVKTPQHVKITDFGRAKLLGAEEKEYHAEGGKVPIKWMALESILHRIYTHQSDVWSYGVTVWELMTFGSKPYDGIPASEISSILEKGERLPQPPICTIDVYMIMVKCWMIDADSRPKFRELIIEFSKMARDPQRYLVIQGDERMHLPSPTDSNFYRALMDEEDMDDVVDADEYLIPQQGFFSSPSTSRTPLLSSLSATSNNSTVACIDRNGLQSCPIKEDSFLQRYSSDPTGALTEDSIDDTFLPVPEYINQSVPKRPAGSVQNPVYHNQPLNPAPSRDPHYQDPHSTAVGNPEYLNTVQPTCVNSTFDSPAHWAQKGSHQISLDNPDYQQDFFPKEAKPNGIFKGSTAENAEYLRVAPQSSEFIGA

Turning to `C=CC(=O)Nc1cccc(Nc2nc(Nc3cnn(Cc4cccc(C)n4)c3)ncc2Cl)c1` [Compound I-52, N-(3-((5-chloro-2-((1-((6-methylpyridin-2-yl)methyl)-1H-pyrazol-4-yl)amino)pyrimidin-4-yl)amino)phenyl)acrylamide], the IC50 was greater than 0.1 µM.

For the molecule `CN(C)C/C=C/C(=O)Nc1cccc(Nc2nc(Nc3cnn(C4CCN(C)CC4)c3)ncc2Cl)c1` [Compound I-53, (E)-N-(3-((5-chloro-2-((1-(1-methylpiperidin-4-yl)-1H-pyrazol-4-yl)amino)pyrimidin-4-yl)amino)phenyl)-4-(dimethylamino)but-2-enamide], the IC50 was greater than 0.1 µM.

For the molecule `C=CC(=O)Nc1ccc(OC2CCOC2)c(Nc2nc(Nc3cnn(C)c3)ncc2Cl)c1` (stereo not shown) [Compound I-54, N-(3-((5-chloro-2-((1-methyl-1H-pyrazol-4-yl)amino)pyrimidin-4-yl)amino)-4-((tetrahydrofuran-3-yl)oxy)phenyl)acrylamide], the IC50 is greater than 0.1 µM.

Take `C=CC(=O)Nc1cc(Nc2nc(Nc3cnn(C)c3)ncc2Cl)ccc1OC1CCOC1` (stereo not shown) [Compound I-55, N-(5-((5-chloro-2-((1-methyl-1H-pyrazol-4-yl)amino)pyrimidin-4-yl)amino)-2-((tetrahydrofuran-3-yl)oxy)phenyl)acrylamide]: the IC50 was greater than 0.1 µM.

For `C=CC(=O)Nc1cccc(C(C)Nc2nc(Nc3cnn(C)c3)ncc2Cl)c1` (stereo not shown) [Compound I-56, N-(3-(1-((5-chloro-2-((1-methyl-1H-pyrazol-4-yl)amino)pyrimidin-4-yl)amino)ethyl)phenyl)acrylamide], the IC50 was greater than 0.1 µM.

With `CC(Nc1nc(Nc2cnn(C)c2)ncc1Cl)c1cccc(NC(=O)/C=C/CN(C)C)c1` (stereo not shown) [Compound I-57, (E)-N-(3-(1-((5-chloro-2-((1-methyl-1H-pyrazol-4-yl)amino)pyrimidin-4-yl)amino)ethyl)phenyl)-4-(dimethylamino)but-2-enamide], the IC50 is greater than 0.1 µM.

Turning to `C=CC(=O)Nc1ccc(F)c(Nc2nc(Nc3cn(C)nc3Cl)ncc2Cl)c1` [Compound I-58, N-(3-((5-chloro-2-((3-chloro-1-methyl-1H-pyrazol-4-yl)amino)pyrimidin-4-yl)amino)-4-fluorophenyl)acrylamide], the IC50 was less than 0.01 µM.

For the molecule `C=CC(=O)Nc1cccc(Nc2nc(Nc3cnn(C)c3)nc(C)c2Cl)c1` [Compound I-59, N-(3-((5-chloro-6-methyl-2-((1-methyl-1H-pyrazol-4-yl)amino)pyrimidin-4-yl)amino)phenyl)acrylamide], the IC50 was greater than 0.1 µM.

On to `C=CC(=O)Nc1cccc(Nc2nc(Nc3cn(C)cn3)ncc2Cl)c1` [Compound I-60, N-(3-((5-chloro-2-((1-methyl-1H-imidazol-4-yl)amino)pyrimidin-4-yl)amino)phenyl)acrylamide], for which the IC50 was in the range of 0.01 to 0.1 µM.

On to `C=CC(=O)Nc1cccc(Nc2nc(Nc3cnn(C4CCNCC4)c3)ncc2Cl)c1` [Compound I-62, N-(3-((5-chloro-2-((1-(piperidin-4-yl)-1H-pyrazol-4-yl)amino)pyrimidin-4-yl)amino)phenyl)acrylamide trifluoroacetate], for which the IC50 is less than 0.01 µM.

Take `Cn1cc(Nc2ncc(Cl)c(Nc3cccc(N4C(=O)C=CC4=O)c3)n2)cn1` [Compound I-63, 1-(3-((5-chloro-2-((1-methyl-1H-pyrazol-4-yl)amino)pyrimidin-4-yl)amino)phenyl)-1H-pyrrole-2,5-dione]: the IC50 is greater than 0.1 µM.

On to `C=CS(=O)(=O)Nc1cc(Nc2nc(Nc3cnn(C4CCN(C)CC4)c3)ncc2Cl)ccc1F` [Compound I-64, N-(5-((5-chloro-2-((1-(1-methylpiperidin-4-yl)-1H-pyrazol-4-yl)amino)pyrimidin-4-yl)amino)-2-fluorophenyl)ethenesulfonamide], for which the IC50 was in the range of 0.01 to 0.1 µM.

For the molecule `C=CS(=O)(=O)Nc1cccc(Nc2nc(Nc3cnn(C)c3)ncc2Cl)c1` [Compound I-65, N-(3-((5-chloro-2-((1-methyl-1H-pyrazol-4-yl)amino)pyrimidin-4-yl)amino)phenyl)ethenesulfonamide], the IC50 lay in the range of 0.01 to 0.1 µM.

The values above are taken from patent publication US10273224B2, “Substituted pyrimidine compounds, compositions and medicinal applications thereof” (JUBILANT BIOSYS LIMITED, priority 2013, dated 2019).
